# In patent US20240252557A1, “MULTIBIOTIC SUPPLEMENTS” (Natals, Inc., priority 2023, published 2024):
# System: Caco-2/THP1-Blue cell co-cultures
# Test: Transepithelial electrical resistance (TEER) of Caco-2/THP1-Blue co-cultures, model of mild intestinal barrier disruption
# Format: cell-based, human
# Details: 48 h colonic fermentation samples, filtered and sterilized; TEER after 24 h
# Text: This study used an in vitro cell co-culture to create a model of mild intestinal barrier disruption. This method utilizes a co-culture model of intestinal epithelial-like cells (Caco-2 cells) and human monocytes/macrophages (THP1 cells) and is based on the work of Satsu and colleagues (PMID: 17010338) and is described by Daguet et al. (doi: 10.1016r.jff.2015.11.005). Caco-2 cells are allowed to grow into a monolayer that has physiological properties of the intestinal lining, including tight junctions. Tight junction proteins keep adjacent epithelial cells together, which forms a barrier that is virtually impermeable to macromolecules. The “tightness” of tight junctions can be measured as transepithelial electrical resistance (TEER), with a high TEER corresponding to a tighter barrier. THP1 monocytes were originally isolated from a human patient with acute leukemia. When stimulated with phorbol 12-myristate 13-acetate (PMA), these cells develop into macrophage-like cells that are able to adhere and are primed for toll-like receptor (TLR) signaling. […] TEER was measured after pre-treatment of the cell co-cultures, representing a baseline (0 hour) value. […] Changes in TEER values were measured after 24 hours.
# TEER was measured 24 h after pre-treatment of the co-cultures and each 24 h value was normalized to its corresponding Oh value and is shown as percentage of initial value. […]
compound,measurement,value
CCCC(=O)OCC(COC(=O)CCC)OC(=O)CCC [tributyrin],barrier integrity (TEER) compared to the blank control,improved barrier integrity
